Test results from doi:10.1101/2025.11.20.689572v1 (biorxiv, 2025).

What was measured:
5-HT1D = molecular target: T1, 5-HT1D (Homo sapiens, UniProt P28221); assay: competitive radioligand binding, HEK293 membranes
T1 construct: gene HTR1D; full-length receptor; HEK293 with TRUPATH sensors (function)

HTR2C [1] = molecular target: T2, HTR2C (Homo sapiens, UniProt P28335); assay: cell-based; parameters: species or system HEK293; Fluo-4 Direct calcium mobilization on FLIPR-Tetra; conditions: HEK293, read-out: N-Desmethyl Xanomeline; Assay=Calcium; agonist mode, % of control agonist
T2 sequence (P28335 1-458): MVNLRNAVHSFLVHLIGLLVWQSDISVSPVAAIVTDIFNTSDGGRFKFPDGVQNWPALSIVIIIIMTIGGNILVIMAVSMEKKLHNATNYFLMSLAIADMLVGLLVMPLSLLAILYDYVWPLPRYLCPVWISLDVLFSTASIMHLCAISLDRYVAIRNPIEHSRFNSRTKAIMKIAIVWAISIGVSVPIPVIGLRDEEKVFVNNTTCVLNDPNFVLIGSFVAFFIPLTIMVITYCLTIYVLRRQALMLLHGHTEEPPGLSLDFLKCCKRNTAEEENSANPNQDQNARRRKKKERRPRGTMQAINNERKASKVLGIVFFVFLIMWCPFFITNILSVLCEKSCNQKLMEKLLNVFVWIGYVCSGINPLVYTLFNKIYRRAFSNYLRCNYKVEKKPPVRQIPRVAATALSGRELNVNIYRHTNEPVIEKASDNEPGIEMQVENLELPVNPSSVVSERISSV

SSTR4 = SSTR4 (Homo sapiens, UniProt P31391); assay: cell-based; parameters: PRESTO-Tango beta-arrestin2 recruitment, luciferase luminescence, concentration-response; conditions: HTLA, read-out: N-Desmethyl Xanomeline; Assay=Tango; agonist mode, % of control agonist
Procedure: (§1) Off-target agonism across the human GPCRome was profiled using PRESTO-Tango, following established protocols with minor adaptations [10]–[12]. […] After ~6 h recovery, cells were transfected with 20 ng plasmid DNA per well and incubated overnight. The next day, 10 µL of test compound (prepared in DMEM + 1% dFBS) was added, and plates were incubated overnight. Media and compounds were removed, and 20 µL per well of Bright-Glo luciferase reagent diluted in assay buffer (Hank’s Balanced Salt Solution (HBSS), 20 mM HEPES, pH 7.4) was added. After 20 min at room temperature (dark), luminescence was recorded. Each plate included the dopamine D2 receptor (DRD2) stimulated with 100 nM quinpirole as a positive control. For the GPCRome screen, each receptor was tested in quadruplicate at 0 and 10 µM compound (final). Responses were expressed as fold change relative to the basal (0 µM) condition. Follow-up concentration–response assays were performed under identical conditions except that serial dilutions of compounds (maximum ~30 µM, final) were added to generate full concentration–response curves.

HTR2A = HTR2A (Homo sapiens, UniProt P28223); assay: cell-based; parameters: TRUPATH BRET2 G-protein dissociation; antagonist mode against agonist EC80; conditions: HEK293, read-out: N-Desmethyl Xanomeline, Assay=Gq; agonist mode, % of control agonist
HTR2C [2] = molecular target: T2, HTR2C; assay: cell-based; parameters: species or system HEK293; TRUPATH BRET2 G-protein dissociation; antagonist mode against agonist EC80; conditions: Assay=Gq; agonist mode
HTR1D = HTR1D (Homo sapiens, UniProt P28221); assay: cell-based; parameters: species or system HEK293; TRUPATH BRET2 G-protein dissociation; antagonist mode against agonist EC80; conditions: N-Desmethyl Xanomeline, agonist mode
M1 = molecular target: T3, M1 (Homo sapiens, UniProt P11229); assay: competitive radioligand binding, HEK293 membranes
T3 construct: gene CHRM1; full-length receptor; HEK293 with TRUPATH sensors (function)
T3 sequence (P11229 1-460): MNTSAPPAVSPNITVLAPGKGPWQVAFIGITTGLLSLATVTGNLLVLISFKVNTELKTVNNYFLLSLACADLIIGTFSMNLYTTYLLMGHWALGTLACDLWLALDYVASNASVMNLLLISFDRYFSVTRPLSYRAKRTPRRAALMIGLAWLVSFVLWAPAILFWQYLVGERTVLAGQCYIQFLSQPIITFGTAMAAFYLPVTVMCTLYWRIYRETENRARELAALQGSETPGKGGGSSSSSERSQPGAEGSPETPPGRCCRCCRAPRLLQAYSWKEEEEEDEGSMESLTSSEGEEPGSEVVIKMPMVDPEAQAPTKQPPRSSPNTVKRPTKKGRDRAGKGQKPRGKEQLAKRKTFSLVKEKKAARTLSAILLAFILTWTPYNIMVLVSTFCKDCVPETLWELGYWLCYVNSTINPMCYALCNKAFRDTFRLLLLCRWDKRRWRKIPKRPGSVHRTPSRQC

DRD4 = molecular target: T4, DRD4 (Homo sapiens, UniProt P21917); assay: cell-based; parameters: PRESTO-Tango beta-arrestin2 recruitment, luciferase luminescence, concentration-response; conditions: HTLA, read-out: Xanomeline; Assay=Tango; agonist mode, % of control agonist
T4 sequence (P21917 1-419): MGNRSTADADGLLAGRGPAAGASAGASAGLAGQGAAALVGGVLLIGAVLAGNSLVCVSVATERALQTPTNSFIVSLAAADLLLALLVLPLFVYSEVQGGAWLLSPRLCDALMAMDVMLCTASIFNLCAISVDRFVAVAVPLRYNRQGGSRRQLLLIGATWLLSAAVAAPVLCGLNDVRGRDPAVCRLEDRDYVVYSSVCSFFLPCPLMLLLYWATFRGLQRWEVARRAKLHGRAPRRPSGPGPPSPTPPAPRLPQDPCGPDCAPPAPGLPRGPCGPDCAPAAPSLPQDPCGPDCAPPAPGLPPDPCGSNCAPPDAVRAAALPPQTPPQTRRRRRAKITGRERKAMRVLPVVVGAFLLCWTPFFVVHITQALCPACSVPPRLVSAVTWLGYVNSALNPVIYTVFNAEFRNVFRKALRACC
Procedure: as §1

CHRM3 = CHRM3 (Homo sapiens, UniProt P20309); assay: cell-based; parameters: species or system HEK293; TRUPATH BRET2 G-protein dissociation; antagonist mode against agonist EC80; conditions: Xanomeline, Assay=Gq; agonist mode
Chain of CHRM3 (P20309 whole entry): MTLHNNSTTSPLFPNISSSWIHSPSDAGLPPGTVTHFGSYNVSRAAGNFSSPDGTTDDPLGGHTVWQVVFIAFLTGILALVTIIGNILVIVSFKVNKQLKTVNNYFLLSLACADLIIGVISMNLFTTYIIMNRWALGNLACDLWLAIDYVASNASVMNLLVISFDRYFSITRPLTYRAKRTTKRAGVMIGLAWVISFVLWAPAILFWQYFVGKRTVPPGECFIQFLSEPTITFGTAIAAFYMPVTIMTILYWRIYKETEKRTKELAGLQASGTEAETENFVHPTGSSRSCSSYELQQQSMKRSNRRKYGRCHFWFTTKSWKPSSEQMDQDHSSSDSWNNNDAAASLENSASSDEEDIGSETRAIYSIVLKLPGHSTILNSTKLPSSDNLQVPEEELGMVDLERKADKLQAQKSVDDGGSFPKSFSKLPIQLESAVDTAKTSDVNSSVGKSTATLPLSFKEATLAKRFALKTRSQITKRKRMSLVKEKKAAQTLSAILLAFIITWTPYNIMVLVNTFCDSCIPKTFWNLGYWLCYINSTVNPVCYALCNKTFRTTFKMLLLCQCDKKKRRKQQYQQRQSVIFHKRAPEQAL

Chain of HTR1D (P28221 whole entry): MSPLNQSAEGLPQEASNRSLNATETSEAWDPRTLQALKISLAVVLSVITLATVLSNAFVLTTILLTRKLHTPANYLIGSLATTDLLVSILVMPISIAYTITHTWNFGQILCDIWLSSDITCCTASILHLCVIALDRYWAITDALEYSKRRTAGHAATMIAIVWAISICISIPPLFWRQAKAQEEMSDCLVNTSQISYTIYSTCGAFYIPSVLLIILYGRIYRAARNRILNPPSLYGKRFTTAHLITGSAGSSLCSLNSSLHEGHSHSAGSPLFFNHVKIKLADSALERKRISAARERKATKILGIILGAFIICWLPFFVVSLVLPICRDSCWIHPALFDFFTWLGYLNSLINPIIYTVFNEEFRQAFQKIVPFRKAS
Chain of SSTR4 (P31391 whole entry): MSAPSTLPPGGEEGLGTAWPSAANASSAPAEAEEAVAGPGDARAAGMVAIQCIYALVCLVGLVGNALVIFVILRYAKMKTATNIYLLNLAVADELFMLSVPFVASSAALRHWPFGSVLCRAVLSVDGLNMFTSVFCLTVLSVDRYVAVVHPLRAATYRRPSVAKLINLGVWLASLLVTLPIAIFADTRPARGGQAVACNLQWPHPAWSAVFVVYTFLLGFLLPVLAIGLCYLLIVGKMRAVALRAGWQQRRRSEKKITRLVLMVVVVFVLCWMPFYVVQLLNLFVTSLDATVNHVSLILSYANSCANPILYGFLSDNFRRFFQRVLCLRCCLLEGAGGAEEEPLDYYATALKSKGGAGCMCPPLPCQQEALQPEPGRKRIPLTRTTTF
T1 sequence (P28221 whole entry): as the sequence (P28221 whole entry) above
Chain of HTR2A (P28223 whole entry): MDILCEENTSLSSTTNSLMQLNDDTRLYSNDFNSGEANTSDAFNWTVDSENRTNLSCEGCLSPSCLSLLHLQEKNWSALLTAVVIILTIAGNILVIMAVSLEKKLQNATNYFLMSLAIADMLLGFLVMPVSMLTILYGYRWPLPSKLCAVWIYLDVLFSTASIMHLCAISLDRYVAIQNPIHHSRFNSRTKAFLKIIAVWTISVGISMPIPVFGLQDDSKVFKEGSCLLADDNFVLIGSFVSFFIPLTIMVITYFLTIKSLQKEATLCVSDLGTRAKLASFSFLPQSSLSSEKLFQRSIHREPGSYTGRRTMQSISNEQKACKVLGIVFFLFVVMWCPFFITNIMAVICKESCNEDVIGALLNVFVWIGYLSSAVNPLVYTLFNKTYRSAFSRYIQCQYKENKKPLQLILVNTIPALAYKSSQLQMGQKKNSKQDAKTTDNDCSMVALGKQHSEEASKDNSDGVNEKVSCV

## CCCCCCOc1nsnc1C1=CCCNC1 [N-desmethylxanomeline]
5-HT1D
  Ki: 38.9 nM
HTR2C [1]
  Emax: 59%
SSTR4
  Emax: 2.88%
HTR2A
  Emax: 98.1%
HTR2C [2]
  EC50: 1940 nM
HTR1D; Assay=Gi2
  EC50: 36.2 nM
HTR1D; Assay=GoA
  EC50: 63.1 nM
HTR1D; Assay=GoB
  EC50: 25.8 nM
HTR1D; Assay=Gz
  EC50: 146 nM
M1
  Ki: 219 nM

## CCCCCCOc1nsnc1C1=CCCN(C)C1 [Xanomeline]
DRD4
  Emax: 11.4%
CHRM3
  EC50: 53.4 nM
